In patent publication US12029726B1, “Composition and method of treating conditions associated with extracellular matrix dysfunction by administering micronutrient composition” (priority 2023, dated 2024):

System: cultured human chondrocytes and synovial fibroblasts
Experiment: LPS-induced arthritic processes in cultured human synovial cells (IL6, MMP13 release; Col2, Aggr, HA content), summary
Format: cell-based
Conditions: added to cell culture medium with LPS
From the text: Inflammation process was initiated by additions of bacterial lipopolysaccharide (LPS) to cell culture medium. Tested parameters included cellular release of interleukin 6 (IL6) as an indicator of induced inflammation, cell culture accumulation of specific extracellular matrix (ECM) components, such as collagen type II (Col2), aggrecan (Aggr) and hyaluronic acid (HA), and release of matrix metalloproteinase 13 (MMP13) as an indicator of cartilage digesting process. Addition of LPS to cell cultures induced inflammation process characterized by dramatic increase in cellular release of IL6 and MMP13 and reduction in cell culture content of Col2, Aggr and HA.
Experiments: For the experiments cells were seeded in 96 well plastic cell culture plates covered with fibronectin (Greiner Bio-One) and grown to a confluent layer at 37° C. and 5% CO2 in corresponding cell culture medium. Cells were supplemented with 3 mcg/ml bacterial lipopolysaccharide (LPS, inflammation inducing treatment) and micronutrient composition were applied for indicated period in growth medium as indicated in the corresponding figure legends. At the end of the incubation cultured cells layers were washed twice with phosphate buffered saline (PBS) and treated in two ways: for the exposition of extracellular matrix (ECM) cells were lysed by 3 min incubation with 0.5% Triton X100/PBS which was followed by 3 min incubation with 25 mM NH4OH/PBS at room temperature or the cells were fixed by using 3% formaldehyde/PBS for one hour at 4° C. […]
Aggrecan, Collagen type II and Hyaluronic Acid content in 96 well plates prepared as described above, which is either exposed ECM or in fixed cells, was assayed by standard sandwich type immunoassay (ELISA, all reagents from Sigma-Aldrich) using rabbit polyclonal anti aggrecan, rabbit polyclonal anti collagen type II antibodies or biotinylated Hyaluronic Acid binding protein as primary treatment and goat anti rabbit IgG antibodies conjugated with horse radish peroxidase (HRP) or HRP-conjugated High Density Streptavidin as secondary treatment, respectively. Assayed component content was estimated by color changing reaction of HRP substrate (TMB substrate solution, Sigma-Aldrich) measured as 450 nm optical density using microplate optical density reader (Molecular Devices). […]
Effects of Micronutrient composition on Release of Inflammation Markers in Cultured Human Synovial Cells: Inflammation process was induced in human chondrocytes cultured in 96 well plates with LPS as described above. […] At the end of indicated incubation period interleukin 6 (IL6) and matrix metalloproteinase 13 (MMP13) levels in conditioned cell culture media were measured by ELISA using assay kits (R&D Systems) in accordance with manufacturer's protocol. […]

| Structure (SMILES) | reversal of LPS-induced arthritic processes (increase in IL6 and MMP13 release, reduction in Col2, Aggr and HA content) |
| --- | --- |
| O=C(O)CCC(=O)C(=O)O [Alpha Keto-Glutarate] | reversed to different degrees |
| O=C([O-])/C=C/C(=O)[O-].[Fe+2] [Iron (II) Fumarate] | reversed to different degrees |
| NC(=O)CC[C@H](N)C(=O)O [L-Glutamine] | reversed to different degrees |
| C[S+](CC[C@H](N)C(=O)[O-])C[C@H]1O[C@@H](n2cnc3c(N)ncnc32)[C@H](O)[C@@H]1O (stereo partly shown) [S-Adenosyl Methionine] | reversed to different degrees |
